Test systems include SNB-75 CNS; COLO 205 colon; NCI-H460 lung; SW-620 colon; EKVX NSCLC; A549 NSCLC; HT29 colon; UO-31 renal; SK-MEL-28 melanoma; LOX IMVI melanoma.
Test in all cases: NCI-60 cell line screen, 48 h

Structures are written as SMILES. “And” between values parts separate entries of the source, which are not always exact repeats. Equal values may be shown once.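 Cultured in 96-well plates, cells were exposed to test compound for 48 hours across five concentrations. GI50 = concentration required for 50% inhibition of growth. The concentration for full growth arrest is given as TGI.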

As to `COC(=O)c1ccc2c(c1)sc1nc(-c3ccc(OC)cc3)cn12`, the TGI in the assay on SNB-75 CNS, in the assay with COLO 205 colon, with NCI-H460 lung, with SW-620 colon, with EKVX NSCLC and in the assay with A549 NSCLC was above 100 µM in each case. The TGI in the assay on HT29 colon, in the assay on UO-31 renal, with SK-MEL-28 melanoma and with LOX IMVI melanoma was above 100 µM each time.

Regarding `NC(=O)CCSC(CC(=O)c1ccc(Cl)cc1)c1ccc(Cl)cc1` (stereo not drawn), the TGI was 90.7 µM with SNB-75 CNS; above 100 µM in the assay on COLO 205 colon; above 100 µM with NCI-H460 lung; 12.2 µM in the assay with SW-620 colon; 93.7 µM in the assay on EKVX NSCLC; above 100 µM in the assay on A549 NSCLC. The TGI was above 100 µM in the assay on HT29 colon, above 100 µM in the assay on UO-31 renal, above 100 µM with SK-MEL-28 melanoma and 25.5 µM with LOX IMVI melanoma.

On to `COc1cccc(NC(=O)CC(=O)NN2C(=O)/C(=C/c3ccc(N(CCC#N)CCC#N)cc3)N=C2c2cc([N+](=O)[O-])ccc2Cl)c1`, for which the TGI in the assay with COLO 205 colon, with SW-620 colon, in the assay on EKVX NSCLC, in the assay on A549 NSCLC, in the assay on UO-31 renal and in the assay on SK-MEL-28 melanoma was above 100 µM in each case. Besides, the TGI in the assay with LOX IMVI melanoma is above 100 µM.

With `CCCC[C@H]1C(=O)O[C@H](C)[C@H](NC(=O)c2cccc(NC=O)c2OC)C(=O)O[C@@H](C)[C@@H]1OC(=O)CC(C)C` (tested in a mixture with another compound), the TGI in the assay with SNB-75 CNS is 17.9 µM; in the assay with COLO 205 colon, 27.1 µM; in the assay on NCI-H460 lung, 21.4 µM; with SW-620 colon it was 64.3 µM; in the assay with EKVX NSCLC it was 31.3 µM; in the assay with A549 NSCLC it was 23 µM. Besides, the TGI with HT29 colon turned out to be 33.1 µM; in the assay on UO-31 renal, 41.4 µM; in the assay on SK-MEL-28 melanoma, 52.8 µM; in the assay on LOX IMVI melanoma, 23.2 µM.

With `C/C(=C\C(=N\NC(=N)N)c1ccccc1)c1ccccc1`, the TGI in the assay on SNB-75 CNS was 17.3 µM; with COLO 205 colon, 0.284 µM; in the assay on NCI-H460 lung, 11.1 µM; with SW-620 colon it was 1.73 µM; in the assay with A549 NSCLC, 16.9 µM; in the assay on HT29 colon it was 3.44 µM. Also, the TGI in the assay with SK-MEL-28 melanoma was 8.86 µM; in the assay on LOX IMVI melanoma, 2.56 µM.

Regarding `Cc1cn(Cc2cn(CC3OC(n4cc(C)c(=O)[nH]c4=O)CC3O)nn2)c(=O)[nH]c1=O` (stereo not drawn), the TGI in the assay with SNB-75 CNS, with COLO 205 colon, in the assay on SW-620 colon, with EKVX NSCLC, with A549 NSCLC and in the assay with UO-31 renal was above 100 µM in each case. Besides, the TGI with SK-MEL-28 melanoma was above 100 µM.

In the case of `COc1ccc(N=Cc2ccc(N(CCC#N)S(=O)(=O)c3ccccc3)cc2C)cc1`, the TGI in the assay on SNB-75 CNS is above 100 µM; in the assay on COLO 205 colon, 96.3 µM; with NCI-H460 lung, above 100 µM; in the assay with SW-620 colon, above 100 µM; in the assay with EKVX NSCLC it was above 100 µM; with A549 NSCLC it was above 100 µM. Besides, the TGI in the assay on HT29 colon, in the assay on UO-31 renal and in the assay on SK-MEL-28 melanoma was above 100 µM throughout.

Turning to `C[C@H]1CCC/C=C/[C@@H]2C[C@H](O)C[C@H]2[C@H](O)/C=C/C(=O)O1`, the GI50 with SNB-75 CNS is 0.0185 µM; in the assay on NCI-H460 lung, 0.036 µM and 0.0837 µM and 0.0828 µM; in the assay with EKVX NSCLC it was < 0.0164 µM and 0.0544 µM and 0.0447 µM; in the assay on A549 NSCLC, < 0.0207 µM and 0.0435 µM and 0.0578 µM; in the assay with HT29 colon it was 0.0224 µM; with UO-31 renal, 0.0301 µM. Also, in the assay on SK-MEL-28 melanoma, the GI50 was 0.0292 µM. In addition, the TGI in the assay with COLO 205 colon is < 0.01 µM and 0.0354 µM; in the assay on SW-620 colon it was 0.0856 µM and 0.118 µM and 0.124 µM; in the assay with A549 NSCLC, above 100 µM; in the assay with UO-31 renal it was 0.0655 µM and 0.492 µM; in the assay on LOX IMVI melanoma, 0.0412 µM and 0.0275 µM.

As to `O=c1c(-c2ccccc2)c(SCCN2CCOCC2)n(-c2ccccc2)c(=S)n1-c1ccccc1`, the TGI with SNB-75 CNS was 87.6 µM; with COLO 205 colon, above 100 µM; with NCI-H460 lung, above 100 µM; in the assay with SW-620 colon, above 100 µM; in the assay on EKVX NSCLC it was above 100 µM; with SK-MEL-28 melanoma it was above 100 µM. For the same molecule, in the assay on LOX IMVI melanoma, the TGI is above 100 µM.

Consider `O=C(O)CCCN=C(C1=C(O)C(=O)N(c2ccccc2)C1=O)c1ccccc1`, for which the TGI with SNB-75 CNS, with COLO 205 colon, with NCI-H460 lung, in the assay on SW-620 colon, in the assay with EKVX NSCLC and with A549 NSCLC was above 100 µM in each case. Besides, the TGI in the assay on HT29 colon, in the assay on UO-31 renal, in the assay with SK-MEL-28 melanoma and in the assay on LOX IMVI melanoma was above 100 µM each time.

As for `COc1cc(/C=C2\N=C(c3ccccc3)N(c3nc4ccc(Sc5ccccc5)cc4[nH]3)C2=O)cc(OC)c1OC`, the TGI in the assay on SNB-75 CNS is above 100 µM; with COLO 205 colon, 33 µM; with NCI-H460 lung it was 51.4 µM; in the assay with SW-620 colon, above 100 µM; in the assay with EKVX NSCLC, above 100 µM; in the assay on A549 NSCLC, above 100 µM. In addition, the TGI in the assay with HT29 colon is 48.4 µM; in the assay on UO-31 renal, above 100 µM; in the assay on SK-MEL-28 melanoma it was 67.4 µM; in the assay on LOX IMVI melanoma, 61.7 µM.

As to `CCCCCCCCCCCCCCCCCC(=O)OCC1OC(OC)C(NC(=O)N(CCCl)N=O)C(O)C1O` (stereo not drawn), the TGI was 41.6 µM in the assay with SNB-75 CNS; above 100 µM in the assay on COLO 205 colon; 33.5 µM in the assay with NCI-H460 lung; 47.8 µM in the assay with SW-620 colon; 52.1 µM in the assay with A549 NSCLC; 63.6 µM with HT29 colon. In addition, the TGI in the assay with UO-31 renal stood at 56.8 µM; in the assay on SK-MEL-28 melanoma, 53.1 µM; in the assay on LOX IMVI melanoma it was 31.8 µM.

As to `O=c1[nH]c(=O)n(CCOCP(=O)(O)O)nc1Br`, the TGI with SNB-75 CNS, with COLO 205 colon, with NCI-H460 lung, in the assay on SW-620 colon, with EKVX NSCLC and with A549 NSCLC was above 100 µM throughout. For the same molecule, the TGI with HT29 colon, in the assay with UO-31 renal, in the assay on SK-MEL-28 melanoma and in the assay on LOX IMVI melanoma was above 100 µM each time.

As to `Cc1cc(=O)n2c3c(c4c(cc13)c(CN(C)C)cc(=O)n4C)OC2`, the TGI is 58.6 µM in the assay with SNB-75 CNS; 35.1 µM in the assay with COLO 205 colon; above 100 µM in the assay on NCI-H460 lung; above 82.3 µM with SW-620 colon; above 58.2 µM in the assay with EKVX NSCLC; above 55.1 µM in the assay with A549 NSCLC. Also, the TGI with HT29 colon was above 45.9 µM; in the assay on UO-31 renal, above 89.8 µM; in the assay with SK-MEL-28 melanoma it was above 85.8 µM; in the assay with LOX IMVI melanoma, above 100 µM.

For `O=C([CH-]C(=O)c1ccccc1)c1ccccc1.O=C([CH-]C(=O)c1ccccc1)c1ccccc1.O=C([CH-]C(=O)c1ccccc1)c1ccccc1.[Cl-].[Hf+4]`, the GI50 is 9.43 µM with SNB-75 CNS; 23.9 µM in the assay on COLO 205 colon; 13.1 µM in the assay with NCI-H460 lung; 10.8 µM in the assay on SW-620 colon; 24.8 µM with EKVX NSCLC; 16.7 µM with A549 NSCLC. In addition, the GI50 in the assay on HT29 colon was 33.9 µM; with UO-31 renal, 26.8 µM; with SK-MEL-28 melanoma, 20.3 µM; in the assay on LOX IMVI melanoma, 23.3 µM. Moreover, the TGI in the assay with SNB-75 CNS is above 100 µM; with COLO 205 colon, above 100 µM; in the assay on NCI-H460 lung, 67.7 µM; with SW-620 colon, above 100 µM; in the assay with EKVX NSCLC it was 77.2 µM; in the assay with A549 NSCLC, 86.2 µM. The TGI in the assay on HT29 colon is above 100 µM; in the assay with UO-31 renal, 96.9 µM; in the assay with SK-MEL-28 melanoma, 82.5 µM; in the assay on LOX IMVI melanoma, above 100 µM.

As for `Cc1cc2c(cc1Cl)SC(c1ccccc1O)NS2(=O)=O` (stereo not drawn), the TGI in the assay on SNB-75 CNS is above 100 µM; in the assay on COLO 205 colon, 69 µM; with NCI-H460 lung, above 100 µM; in the assay on SW-620 colon, 42.5 µM; with EKVX NSCLC, above 100 µM; in the assay on A549 NSCLC, above 100 µM. The TGI with HT29 colon, in the assay with UO-31 renal, in the assay with SK-MEL-28 melanoma and with LOX IMVI melanoma was above 100 µM throughout.

Turning to `CN1NC(c2ccccc2)=C(C#N)C(=O)CC1c1ccc(F)cc1` (stereo not drawn), the TGI in the assay with SNB-75 CNS, in the assay with COLO 205 colon, in the assay with NCI-H460 lung, with SW-620 colon, in the assay with A549 NSCLC and in the assay with HT29 colon was above 100 µM in each case. In addition, the TGI in the assay with SK-MEL-28 melanoma and with LOX IMVI melanoma was above 100 µM each time.

On to `O=C(NC(Cc1ccc(Cl)cc1)C(=O)O)c1ccc(I)cc1` (stereo not drawn), for which the TGI in the assay with SNB-75 CNS, in the assay on COLO 205 colon, in the assay on NCI-H460 lung, with SW-620 colon, in the assay with A549 NSCLC and with HT29 colon was above 100 µM throughout. In addition, the TGI with UO-31 renal, in the assay with SK-MEL-28 melanoma and in the assay on LOX IMVI melanoma was above 100 µM throughout.

For `N=C(N)c1ccc(N=Nc2c(O)ccc3cc4c(N=Nc5ccc(C(=N)N)cc5)c(O)ccc4cc23)cc1`, the TGI in the assay on SNB-75 CNS, with COLO 205 colon, in the assay with NCI-H460 lung, in the assay on SW-620 colon, in the assay with EKVX NSCLC and with A549 NSCLC was above 100 µM each time. In addition, the TGI in the assay with HT29 colon, in the assay on UO-31 renal and with SK-MEL-28 melanoma was above 100 µM each time.

Consider `Cc1ccc2c3c1[C@@H]1O[C@@H]1c1cccc(c1-3)[C@@H]1O[C@H]21`, for which the TGI is 15.7 µM in the assay with SNB-75 CNS; 33.9 µM in the assay with COLO 205 colon; 32.3 µM in the assay with EKVX NSCLC; 34.1 µM in the assay on A549 NSCLC; 23.4 µM in the assay on HT29 colon; 27.7 µM in the assay on UO-31 renal. The TGI in the assay with SK-MEL-28 melanoma came to 23.5 µM; in the assay on LOX IMVI melanoma, 7.38 µM.

For the origin of these results see PubChem BioAssay (NCI).
